Measurements reported in patent US20240384350A1, “METHODS OF TREATING CANCER WITH KINASE INHIBITORS” (BOARD OF REGENTS, THE UNIVERSITY OF TEXAS SYSTEM, priority 2021, published 2024).

How the values were obtained:
Experiment in all cases: Ba/F3 drug screening, Cell Titer Glo, IC50 Mut/WT
Type in all cases: cell-based
[1] = target: T1, EGFR S768I V774M (Homo sapiens, UniProt P00533, S768I/V774M); conditions: PACC; S768I V774M; Ba/F3; 72 hours
T1 construct: host or cells: Ba/F3

[2] = target: T2, EGFR S784F (Homo sapiens, UniProt P00533, S784F); conditions: Classical-Like, 72 hours
T2 construct: expressed in transfected cells; host or cells: Ba/F3 cells, retroviral pBabe-Puro vector (vector made by GeneScript from EGFR WT)

[3] = target: T3, EGFR S768I (Homo sapiens, UniProt P00533, S768I); conditions: PACC; S768I; Ba/F3; 72 hours
T3 construct: expressed in transfected cells; host or cells: Ba/F3

[4] = target: T4, EGFR L747P (Homo sapiens, UniProt P00533, L747P); conditions: PACC; L747P; Ba/F3; 72 hours
T4 construct: expressed in transfected cells; host or cells: Ba/F3
Protocol: (§1) Data represent the ratio of the IC50 value for a given TKI for cells with a PACC EGFR mutation to the IC50 value for cells with wildtype EGFR.
(§2) Ba/F3 cell generation, drug screening, and IC50 approximations. Ba/F3 cells were obtained as a gift from Dr. Gordon Mills (MD Anderson Cancer Center), and maintained in RPMI (Sigma) containing 10% FBS, 1% penicillin/streptomycin, and 10 ng/ml recombinant mIL-3 (R&D Biosystems). To establish stable Ba/F3 cell lines, Ba/F3 cells were transduced with retroviruses containing mutant EGFR plasmids for 12-24 hours.
(§3) After 48-72 hours of transduction, 2 μg/ml puromycin (Invitrogen) was added to Ba/F3 cell lines in complete RPMI. To select for EGFR positive cell lines, cells were stained with PE-EGFR (Biolegend) and sorted by FACS. After sorting, EGFR positive cells were maintained in RPMI containing 10% FBS, 1% penicillin/streptomycin, and 1 ng/ml EGF to support cell viability. Drug screening was performed as previously described^41,42. Shortly, cells were plated in 384-well plates (Greiner Bio-One) at 2000-3000 cells per well in technical triplicate. Seven different concentrations of TKIs or DMSO vehicle were added to reach a final volume of 40 μL per well. After 72 hours, 11 μL of Cell Titer Glo (Promega) was added to each well. Plates were incubated for a minimum of 10 minutes, and bioluminescence was determined using a FLUOstar OPTIMA plate reader (BMG LABTECH). Raw bioluminescence values were normalized to DMSO control treated cells, and values were plotted in GraphPad Prism. […] Drug screens were performed in technical triplicate on each plate and either duplicate or triplicate biological replicates. […] Statistical differences between groups were determined by ANOVA as described in the figure legends.

[5] = target: T5, EGFR Ex19del T790M L718V (Homo sapiens, UniProt P00533, DEL746-750/L718V/T790M); conditions: T790M-like-3S, 72 hours
T5 construct: expressed in transfected cells; host or cells: Ba/F3

[6] = target: T6, EGFR L858R/T790M (Homo sapiens, UniProt P00533, L858R/T790M); conditions: T790M-like-3S, 72 hours
T6 construct: expressed in transfected cells; host or cells: Ba/F3

[7] = target: T7, EGFR S768I/T790M (Homo sapiens, UniProt P00533, S768I/T790M); conditions: T790M-like-3S, 72 hours
T7 construct: expressed in transfected cells; host or cells: Ba/F3

[8] = target: T8, EGFR V774M (Homo sapiens, UniProt P00533, V774M); conditions: PACC; V774M; Ba/F3; 72 hours
T8 construct: host or cells: Ba/F3
Protocol: as §1, §2
(§4) After 48-72 hours of transduction, 2 μg/ml puromycin (Invitrogen) was added to Ba/F3 cell lines in complete RPMI. To select for EGFR positive cell lines, cells were stained with PE-EGFR (Biolegend) and sorted by FACS. After sorting, EGFR positive cells were maintained in RPMI containing 10% FBS, 1% penicillin/streptomycin, and 1 ng/ml EGF to support cell viability. Drug screening was performed as previously described^41,42. Shortly, cells were plated in 384-well plates (Greiner Bio-One) at 2000-3000 cells per well in technical triplicate. Seven different concentrations of TKIs or DMSO vehicle were added to reach a final volume of 40 μL per well. After 72 hours, 11 μL of Cell Titer Glo (Promega) was added to each well. Plates were incubated for a minimum of 10 minutes, and bioluminescence was determined using a FLUOstar OPTIMA plate reader (BMG LABTECH). Raw bioluminescence values were normalized to DMSO control treated cells, and values were plotted in GraphPad Prism. […] Drug screens were performed in technical triplicate on each plate and either duplicate or triplicate biological replicates.

[9] = target: T9, EGFR G724S (Homo sapiens, UniProt P00533, G724S); conditions: PACC; G724S; Ba/F3; 72 hours
T9 construct: expressed in transfected cells; host or cells: Ba/F3
Protocol: as §1, §2, §4

[10] = target: T10, EGFR R776C (Homo sapiens, UniProt P00533, R776C); conditions: PACC; R776C; Ba/F3; 72 hours
T10 construct: host or cells: Ba/F3

[11] = target: T11, EGFR Ex19del L718Q (Homo sapiens, UniProt P00533, DEL746-750/L718Q); conditions: PACC; Ex19del L718Q; Ba/F3; 72 hours
T11 construct: expressed in transfected cells; host or cells: Ba/F3

[12] = tested on: EGFR I740dupIPVAK; conditions: PACC; I740dupIPVAK; Ba/F3; 72 hours
[13] = target: T12, EGFR E709A G719S (Homo sapiens, UniProt P00533, E709A/G719S); conditions: PACC; E709A G719S; Ba/F3; 72 hours
T12 construct: expressed in transfected cells; host or cells: Ba/F3

[14] = target: T13, EGFR Ex19del/T790M/L792H (Homo sapiens, UniProt P00533, DEL746-750/L792H/T790M); conditions: T790M-like-3R, 72 hours
T13 construct: expressed in transfected cells; host or cells: Ba/F3

[15] = target: T14, EGFR T790M (Homo sapiens, UniProt P00533, T790M); conditions: T790M-like-3S, 72 hours
T14 construct: expressed in transfected cells; host or cells: Ba/F3

[16] = target: T15, EGFR G719A T790M (Homo sapiens, UniProt P00533, G719A/T790M); conditions: T790M-like-3S, 72 hours
T15 construct: expressed in transfected cells; host or cells: Ba/F3

[17] = target: T16, EGFR S811F (Homo sapiens, UniProt P00533, S811F); conditions: Classical-Like, 72 hours
T16 construct: expressed in transfected cells; host or cells: Ba/F3 cells, retroviral pBabe-Puro vector (vector made by GeneScript from EGFR WT)

[18] = target: T17, EGFR S768I/V769L (Homo sapiens, UniProt P00533, S768I/V769L); conditions: PACC; S768I/V769L; Ba/F3; 72 hours
T17 construct: host or cells: Ba/F3

[19] = target: T18, EGFR L858R T790M L792H (Homo sapiens, UniProt P00533, L792H/L858R/T790M); conditions: T790M-like-3S, 72 hours
T18 construct: expressed in transfected cells; host or cells: Ba/F3

[20] = target: T19, EGFR L858R L718Q (Homo sapiens, UniProt P00533, L718Q/L858R); conditions: PACC; L858R L718Q; Ba/F3; 72 hours
T19 construct: host or cells: Ba/F3

[21] = target: T20, EGFR V769L (Homo sapiens, UniProt P00533, V769L); conditions: PACC; V769L; Ba/F3; 72 hours
T20 construct: expressed in transfected cells; host or cells: Ba/F3

[22] = target: T21, EGFR L861Q (Homo sapiens, UniProt P00533, L861Q); conditions: Classical-Like, 72 hours
T21 construct: expressed in transfected cells; host or cells: Ba/F3 cells, retroviral pBabe-Puro vector

[23] = target: T22, EGFR L858R/L718V (Homo sapiens, UniProt P00533, L718V/L858R); conditions: PACC; L858R/L718V; Ba/F3; 72 hours
T22 construct: host or cells: Ba/F3

[24] = target: T23, EGFR E709A (Homo sapiens, UniProt P00533, E709A); conditions: PACC; E709A; Ba/F3; 72 hours
T23 construct: expressed in transfected cells; host or cells: Ba/F3
Protocol: as §1, §2, §4

[25] = target: T24, EGFR N771dupN (Homo sapiens, UniProt P00533, DUP771-771); conditions: Ex20, 72 hours
T24 construct: expressed in transfected cells; host or cells: Ba/F3 cells, retroviral pBabe-Puro vector

[26] = target: T25, EGFR N771dupN G724S (Homo sapiens, UniProt P00533, DUP771-771/G724S); conditions: Ex20, 72 hours
T25 construct: expressed in transfected cells; host or cells: Ba/F3 cells, retroviral pBabe-Puro vector (vector made by GeneScript from EGFR G724S, c.2313_2314insAAC)
Protocol: Data represent the ratio of the IC50 value for a given TKI for cells with an ex20ins EGFR mutation to the IC50 value for cells with wildtype EGFR.
as §2, §3

[27] = target: T26, EGFR G719S T790M (Homo sapiens, UniProt P00533, G719S/T790M); conditions: T790M-like-3S, 72 hours
T26 construct: expressed in transfected cells; host or cells: Ba/F3
Protocol: Data represent the ratio of the IC50 value for a given TKI for cells with a T790M-like-3S EGFR mutation to the IC50 value for cells with wildtype EGFR.
as §2, §4

ratio of IC50 for cells with mutant EGFR to IC50 for cells with wildtype EGFR (Mut/WT) [1]: 0.2117 | ratio of IC50 for cells with mutant EGFR to IC50 for cells with wildtype EGFR (Mut/WT) [2]: 0.01816 | ratio of IC50 for cells with mutant EGFR to IC50 for cells with wildtype EGFR (Mut/WT) [3]: 0.3863 | ratio of IC50 for cells with mutant EGFR to IC50 for cells with wildtype EGFR (Mut/WT) [4]: 2.085 | ratio of IC50 for cells with mutant EGFR to IC50 for cells with wildtype EGFR (Mut/WT) [5]: 154.4 | ratio of IC50 for cells with mutant EGFR to IC50 for cells with wildtype EGFR (Mut/WT) [6]: 11.95 | ratio of IC50 for cells with mutant EGFR to IC50 for cells with wildtype EGFR (Mut/WT) [7]: 60.19 | ratio of IC50 for cells with mutant EGFR to IC50 for cells with wildtype EGFR (Mut/WT) [8]: 0.2507 | ratio of IC50 for cells with mutant EGFR to IC50 for cells with wildtype EGFR (Mut/WT) [9]: 8.499 | ratio of IC50 for cells with mutant EGFR to IC50 for cells with wildtype EGFR (Mut/WT) [10]: 0.02009 | ratio of IC50 for cells with mutant EGFR to IC50 for cells with wildtype EGFR (Mut/WT) [11]: 0.09651 | ratio of IC50 for cells with mutant EGFR to IC50 for cells with wildtype EGFR (Mut/WT) [12]: 0.5725 | ratio of IC50 for cells with mutant EGFR to IC50 for cells with wildtype EGFR (Mut/WT) [13]: 0.1143 | ratio of IC50 for cells with mutant EGFR to IC50 for cells with wildtype EGFR (Mut/WT) [14]: 74.97 | ratio of IC50 for cells with mutant EGFR to IC50 for cells with wildtype EGFR (Mut/WT) [15]: 4.92 | ratio of IC50 for cells with mutant EGFR to IC50 for cells with wildtype EGFR (Mut/WT) [16]: 0.6778 | ratio of IC50 for cells with mutant EGFR to IC50 for cells with wildtype EGFR (Mut/WT) [17]: 0.1118 | ratio of IC50 for cells with mutant EGFR to IC50 for cells with wildtype EGFR (Mut/WT) [18]: 0.713 | ratio of IC50 for cells with mutant EGFR to IC50 for cells with wildtype EGFR (Mut/WT) [19]: 5.198 | ratio of IC50 for cells with mutant EGFR to IC50 for cells with wildtype EGFR (Mut/WT) [20]: 0.3655 | ratio of IC50 for cells with mutant EGFR to IC50 for cells with wildtype EGFR (Mut/WT) [21]: 0.3024 | ratio of IC50 for cells with mutant EGFR to IC50 for cells with wildtype EGFR (Mut/WT) [22]: 0.05346 | ratio of IC50 for cells with mutant EGFR to IC50 for cells with wildtype EGFR (Mut/WT) [23]: 0.3578 | ratio of IC50 for cells with mutant EGFR to IC50 for cells with wildtype EGFR (Mut/WT) [24]: 0.4803 | ratio of IC50 for cells with mutant EGFR to IC50 for cells with wildtype EGFR (Mut/WT) [25]: 7.062 | ratio of IC50 for cells with mutant EGFR to IC50 for cells with wildtype EGFR (Mut/WT) [26]: 0.8301 | ratio of IC50 for cells with mutant EGFR to IC50 for cells with wildtype EGFR (Mut/WT) [27]: 3.949
Structure (SMILES): CN(C)C/C=C/C(=O)Nc1cc2c(Nc3ccc(Cl)c(Br)c3)ncnc2cn1 [Tarlox-TKI]
